# Measured values published in patent US6927233B1, “5ht2 agonists for controlling IOP and treating glaucoma” (Alcon, Inc., priority 2000, dated 2005).
# Tested on: lasered monkey model of ocular hypertension
# Assay: IOP response in the lasered monkey model of ocular hypertension
# Type: in vivo, cynomolgus monkeys
# Details: for IOP Response % Change, 1 hr / IOP decrease from baseline (mmHg) / IOP Response % Change, 3 hr / IOP Response % Change, 6 hr: 300 μg topical, one 30 μL aliquot to right (lasered) eye, change from baseline IOP; for effect on IOP (in words): dosed at 300 μg, lasered monkey model of ocular hypertension
# Protocol: Intraocular pressure was determined with an Alcon Pneumatonometer after light corneal anesthesia with 0.1% proparacaine. Eyes were washed with saline after-each measurement. After a baseline IOP measurement, test compound was instilled in one 30 μL aliquot to the right eyes only of nine cynomolgus monkeys. Vehicle was instilled in the right eyes of six additional animals. Subsequent IOP measurements were taken at 1, 3, and 6 hours. A compound is considered efficacious in this model of ocular hypertension if there is a decrease in the baseline IOP of the lasered eye (O.D.) of at least 20% following topical administration.
Compound,"IOP Response % Change, 1 hr (1 hr after dosing) [%]",IOP decrease from baseline (mmHg) (1 hr after dosing),"IOP Response % Change, 3 hr (3 hr after dosing) [%]",IOP decrease from baseline (mmHg) (3 hr after dosing),"IOP Response % Change, 6 hr (6 hr after dosing) [%]",IOP decrease from baseline (mmHg) (6 hr after dosing),effect on IOP (in words)
"CC(N)Cn1ncc2ccc(O)cc21 (single isomer, unassigned; isomer 1) [S-(+)-isomer, 1-(2-aminopropyl)-indazol-6-ol]",−15.0,6.4,−35.3,14.8,−40.8,17.1,significant decrease in IOP
"CC(N)Cn1ncc2ccc(O)cc21 (centres unmarked) [Compound, 1-(2-aminopropyl)-indazol-6-ol]",−17.6,7.3,−28.1,11.8,−33.8,14.6,significant decrease in IOP
